Experimental data reported in PMC7400207, “It Takes Two: Dimerization Is Essential for the Broad-Spectrum Predatory and Defensive Activities of the Venom Peptide Mp1a from the Jack Jumper Ant Myrmecia pilosula” (Biomedicines, 2020).
Marks after values point to notes of the source that are not given here. Where no end group is shown, it is not given here.

Legend:
F11 cells = assay: FLIPR calcium assay, activation of F11 cells; assay type: cell-based; settings: F11 cells, FLIPR
Description: F11 cells were cultured as previously described. Cells were maintained on Ham’s F12 media supplemented with 10% fetal bovine serum (FBS), 100 µM hypoxanthine, 0.4 µM aminopterin, and 16 µM thymidine (Hybri-MaxTM, Sigma Aldrich, North Ryde, Australia). Then, 384-well imaging plates (Corning) were seeded 48 h prior to imaging resulting in 90–95% confluence at imaging. Cells were incubated for 30 min with the Calcium 4 assay component A according to the manufacturer’s instructions (Molecular Devices, Sunnyvale, CA, USA) in physiological salt solution (PSS; composition in mM: 140 NaCl, 11.5 D-glucose, 5.9 KCl, 1.4 MgCl2, 1.2 NaH2PO4, 5 NaHCO3, 1.8 CaCl2, 10 HEPES) at 37°C. Fluorescence was measured using a fluorescent imaging plate reader (FLIPR^TETRA) equipped with a CCD camera (Excitation: 470–490 nm, Emission: […]) (Molecular Devices, Sunnyvale, CA, USA). Signals were read every second for 10 s before, and 300 s after the addition of peptides in PSS supplemented with 0.1% bovine serum albumin. All data are the mean ± SEM of assays performed in triplicate. Maximum–minimum fluorescence in the 300 s period after peptide addition was recorded as the response. Concentration–response data were fitted with a four-parameter Hill equation (variable slope) using GraphPad Prism 8 to obtain effective concentration (EC50) values.

[1] = test system: mouse dorsal root ganglion (DRG) cells; assay: Calcium imaging of mammalian sensory neurons; assay type: cell-based; settings: 1 µM peptide, Fluo-4 calcium imaging, neuronal and non-neuronal cells
Description: Calcium imaging of a heterogenous population of mouse dorsal root ganglion (DRG) sensory neurons was performed as previously described. In brief, dorsal root ganglion (DRG) cells isolated from 4–8-week-old male C57BL/6 mice under ethics approval TRI/IMB/093/17 (University of Queensland Animal Ethics Committee, approval date 31/03/2017) were dissociated and then plated in Dulbecco’s modified Eagle’s medium (Gibco, Grand Island, NY, USA) containing 10% fetal bovine serum (FBS; Assaymatrix, Melbourne, Australia) and penicillin/streptomycin (Gibco) on a 96-well poly-D-lysine–coated culture plate (Corning, Lowell, MA, USA), and maintained overnight. Cells were loaded with Fluo-4 AM calcium indicator as per the manufacturer’s instructions (Thermo Fisher Scientific, Grand Island, NY, USA). After loading for 1 h, the dye solution was replaced with assay solution (Hanks’ balanced salt solution and 20 mM HEPES). Fluorescence corresponding to intracellular calcium ([Ca^2+]i) of typically 100–150 DRG cells per experiment was monitored in parallel using a Nikon Ti-E deconvolution inverted microscope, equipped with a Lumencor Spectra LED light source. Images were acquired at a 20× objective at one frame/s (excitation 485 nm; emission 521 nm). For each experiment, baseline fluorescence was monitored for 30 s and then a wash of assay solution was applied.

Drosophila melanogaster [2] = assay: Drosophila melanogaster microinjection assay; assay type: in vivo; settings: intrathoracic injection, 50 nL, adult female flies, lethality at 24 h; three dose-response curves, ± SEM
Description: The insecticidal activity of the chemically synthesized 1a and analogues thereof were determined by injection into adult female D. melanogaster aged 3–5 days (mass 0.7–0.9 mg) as described previously. Analogues were dissolved in water and intrathoracically injected using pulled glass capillaries at a volume of 50 nL per fruit fly, and the results were compared against an equivalent injection volume of water alone. All injections were performed in the morning or early afternoon. At 24 h post-injection flies were monitored for lethality. Dose–response curves were constructed using 7–10 doses per analogue (each dose tested in eight flies) and three separate dose–response curves were constructed for each analogue. The lethality in the groups receiving the analogues were adjusted using the respective control group lethality using the Henderson-Tilton formula [20]. The median lethal dose (LD50) of each analogue was calculated based on the three dose–response curves using GraphPad Prism 8.0 [21]. One-way ANOVA followed by Dunnett’s multiple comparison test were used to compare LD50 values.

Drosophila melanogaster [3] = settings: same assay; cited from earlier work
trypanosomes = settings: cited from earlier work
Text: However, the anthelmintic activity of the dimers was only observed at concentrations 10-fold higher than required for neuronal cell activation, cytotoxicity and hemolysis.

Haemonchus contortus = assay: microbe, parasite or virus in culture; assay type: cell-based
Description: Sheep were infected with H. contortus Kirby isolate (field isolate from the University of New England Kirby Research Farm in 1986; susceptible to all commercial anthelmintics) and housed at the Commonwealth Scientific and Industrial Research Organisation (CSIRO) FD McMaster Laboratory, Armidale, NSW. All animal procedures were approved by the FD McMaster Animal Ethics Committee, CSIRO (Approval Number AEC 17/12, approval date 15.6.2017). Eggs were prepared from overnight fecal collection as described. In brief, feces were filtered through mesh filters, settled, and supernatant removed by vacuum. Eggs were recovered by density centrifugation using 10 and 25% (w/v) sucrose solutions, centrifuged at 650× g for 7 min. Eggs were recovered from the interface of the two sucrose layers, rinsed with distilled water, sterilized with bleach, rinsed again, and diluted to 4500 eggs/mL. Tylosin tartrate (800 μg/mL) and amphotericin B (25.0 μg/mL) were added, and eggs were used immediately for larval development assays.
Assays were conducted using 96-well microtitre plates, with each well containing 50 μL of 2% agar, 20 μL of egg solution and 20 μL of peptide solution in water. The commercial anthelmintic levamisole (Sigma Aldrich) was used as a positive control (final 1% v/v). Negative controls contained equivalent volumes of water or DMSO (final 1% v/v). Plates were incubated at 26 °C for six days. After 24 h, each well was fed with 10 μL of a nutrient solution containing Escherichia coli XL1-Blue1 (grown overnight at 37 °C) and growth medium. The growth medium consisted of yeast extract (1% w/v), Earle’s salt solution (10% v/v), saline solution (0.9% NaCl, w/v), and sodium bicarbonate (1 mM) in Luria-Bertani medium (LB). Larvae were killed and stained with Lugol’s iodine solution after six days. Larvae that had developed to the infective L3 stage were counted, and the numbers in treated assay wells were expressed as a percentage of the number of infective L3 stage larvae in multiple control wells. Concentrations that caused 50% inhibition (IC50 values) were calculated from three experiments of duplicate assays.

HEK293 cells = settings: HEK293, 24 h, resazurin; cited from earlier work
Description: (§1) Table 2 Summary of bioassay data for synthetic Mp1a and analogues, including effective concentration (EC50) for activation of F11 cells, concentrations that caused 50% inhibition (IC50) for inhibition of larval development of H. contortus; median lethal dose (LD50) for lethal insecticidal effects on D. melanogaster; concentrations required to induce 50% cell death (CC50) for effects on viability o | column: Cytotoxicity (CC50 µM) ^b

human red blood cells = settings: cited from earlier work
Description: as §1, with “Hemolysis (HC50” for “Cytotoxicity (CC50”

**Q.** What does the source list for CC[C@H](C)[C@H](N)C(=O)N[C@@H](CC(=O)O)C(=O)N[C@@H](Cc1c[nH]c2ccccc12)C(=O)N[C@@H](CCCCN)C(=O)N[C@@H](CCCCN)C(=O)N[C@H](C(=O)N[C@@H](CC(=O)O)C(=O)N[C@@H](Cc1c[nH]c2ccccc12)C(=O)N[C@@H](CCCCN)C(=O)N[C@@H](CCCCN)C(=O)N[C@H](C(=O)N[C@@H](CO)C(=O)N[C@@H](CCCCN)C(=O)N[C@@H](CCCCN)C(=O)N[C@H](C(=O)N[C@H]1CSSC[C@@H](C(=O)N[C@@H](CCCCN)C(=O)N[C@@H](Cc2ccccc2)C(=O)N[C@@H](CC(C)C)C(N)=O)NC(=O)[C@H](C)NC(=O)[C@H](CCCCN)NC(=O)[C@H](CC(C)C)NC(=O)[C@H](CCSC)NC(=O)[C@H](C(C)C)NC(=O)[C@H](CCCCN)NC(=O)[C@@H](NC(=O)[C@@H](NC(=O)[C@H](CCCCN)NC(=O)[C@H](CCCCN)NC(=O)[C@H](CO)NC(=O)[C@@H](NC(=O)[C@H](CCCCN)NC(=O)[C@H](CCCCN)NC(=O)[C@H](Cc2c[nH]c3ccccc23)NC(=O)[C@H](CC(=O)O)NC(=O)[C@@H](NC(=O)[C@H](CCCCN)NC(=O)[C@H](CCCCN)NC(=O)[C@H](Cc2c[nH]c3ccccc23)NC(=O)[C@H](CC(=O)O)NC(=O)[C@@H](N)[C@@H](C)CC)C(C)C)C(C)C)[C@@H](C)O)CSSC[C@@H](C(=O)N[C@@H](CCCCN)C(=O)N[C@@H](Cc2ccccc2)C(=O)N[C@@H](CC(C)C)C(N)=O)NC(=O)[C@H](C)NC(=O)[C@H](CCCCN)NC(=O)[C@H](CC(C)C)NC(=O)[C@H](CCSC)NC(=O)[C@H](C(C)C)NC(=O)[C@H](CCCCN)NC1=O)[C@@H](C)O)C(C)C)C(C)C [Analogue 5a]?
**A.** Concentration at which cytolysis (rapid increase in fluorescence followed by decrease to or below baseline) was observed (F11 cells): ≥ 10 µM; Effect on [Ca2+]i of DRG cells [1]: activated all DRG cells and caused dye leakage; Insecticidal Activity (LD50) (Drosophila melanogaster [2]): 415.4 ± 29.6 ^a pmol/g

**Q.** For ω-hexatoxin-Hv1a, which “LD50 (insecticidal potency)” value (Drosophila melanogaster [3]) is on record?
**A.** 9 pmol/g

**Q.** For β-diguetoxin-Dc1a, which “LD50 (insecticidal potency)” value (Drosophila melanogaster [3]) is on record?
**A.** 59 pmol/g

**Q.** With “cupiennin-1a: broadly cytolytic peptide from the wandering spider Cupiennius salei (GFGALFKFLAKKVAKTVAKQAAKQGAKYVVNKQME; ends and bridges not checked; UniProt P83619 1-35, looked up)” as the compound, how does the “Selectivity for trypanosomes over human red blood cells” value (trypanosomes) read?
**A.** > 400 fold

**Q.** For CC[C@H](C)[C@H](N)C(=O)N[C@@H](CC(=O)O)C(=O)N[C@@H](Cc1c[nH]c2ccccc12)C(=O)N[C@@H](CCCCN)C(=O)N[C@@H](CCCCN)C(=O)N[C@H](C(=O)N[C@@H](CC(=O)O)C(=O)N[C@@H](Cc1c[nH]c2ccccc12)C(=O)N[C@@H](CCCCN)C(=O)N[C@@H](CCCCN)C(=O)N[C@H](C(=O)N[C@@H](CO)C(=O)N[C@@H](CCCCN)C(=O)N[C@@H](CCCCN)C(=O)N[C@H](C(=O)N[C@H]1CSSC[C@@H](C(=O)N[C@@H](CCCCN)C(=O)N[C@@H](CCCCN)C(=O)N[C@H](C(=O)N[C@@H](CC(C)C)C(=O)N[C@@H](CCCCN)C(=O)N[C@@H](CCC(N)=O)C(N)=O)C(C)C)NC(=O)[C@H](C(C)C)NC(=O)[C@H]([C@@H](C)O)NC(=O)[C@H](CCCCN)NC(=O)[C@H](C)NC(=O)[C@H](CC(C)C)NC(=O)[C@H](C(C)C)NC(=O)[C@@H](NC(=O)[C@@H](NC(=O)CNC(=O)[C@H](CCCCN)NC(=O)[C@H](CO)NC(=O)[C@@H](NC(=O)[C@H](CC(C)C)NC(=O)CNC(=O)[C@@H](NC(=O)[C@@H](N)CC(C)C)[C@@H](C)CC)C(C)C)[C@@H](C)O)CSSC[C@@H](C(=O)N[C@@H](CCCCN)C(=O)N[C@@H](Cc2ccccc2)C(=O)N[C@@H](CC(C)C)C(N)=O)NC(=O)[C@H](C)NC(=O)[C@H](CCCCN)NC(=O)[C@H](CC(C)C)NC(=O)[C@H](CCSC)NC(=O)[C@H](C(C)C)NC(=O)[C@H](CCCCN)NC1=O)[C@@H](C)O)C(C)C)C(C)C [Analogue 1c], which “Concentration at which cytolysis (rapid increase in fluorescence followed by decrease to or below baseline) was observed” value (F11 cells) is on record?
**A.** ≥ 1 µM

**Q.** What about the EC50 (F11 cells; Calcium 4 dye, max-min fluorescence in 300 s after peptide addition, PSS with 0.1% BSA, mean ± SEM, triplicate, read-out: Neuronal Cell Activation (EC50)) of the same compound?
**A.** 1390 ± 340 nM

**Q.** And the IC50 (Haemonchus contortus; H. contortus Kirby isolate, egg to infective L3, 6 days, 26 °C, three experiments of duplicate assays, ± SEM, for 1a the component at higher concentrations (about 90% of population), read-out: Anthelmintic Activity (IC50), inhibition of larval development)?
**A.** 7200 ± 100 nM

**Q.** What about the “Fold less active than levamisole (IC50 higher)” value (Haemonchus contortus; larval development, drug-susceptible isolate) of the same compound?
**A.** approximately 10 fold

**Q.** What about the “Insecticidal Activity (LD50)” value (Drosophila melanogaster [2]) of the same compound?
**A.** 552.7 ± 18.2 ^a pmol/g

**Q.** What about the “Cytotoxicity (CC50)” value (HEK293 cells) of the same compound?
**A.** 700 nM

**Q.** What about the “Hemolysis (HC50)” value (human red blood cells) of the same compound?
**A.** > 12 µM
